This note sets out measurements from patent publication US20160102052A1, “Use of Cysteamine in Treating Infections caused by Yeasts/Moulds” (priority 2014, published 2016).

Common to all, as to assay: MIC of clinical antifungals, CLSI M38-A2 broth microdilution
Common to all, as to type: cell-based

In experiment [1] the test system is Exophiala jeanselmei NCPF 2377. As to conditions: NCPF2377, RPMI-1640, 35° C.; for MIC: read-out: MIC100. The method, then:
(§1) Two Candida spp. strains (C. krusei ATCC6258 & C. parapsilosis ATCC22019) and Exophiala jeanselmei reference strain NCPF2377 were also tested. These acted as quality control strains. Flat-bottomed Nunc Plates were prepared containing a serial doubling dilution of antifungals at 2× final concentration. […] These were incubated at 35° C. and read at 24 h and 48 h (Candida spp.) or 120 h (Exophiala spp.) on a BioTek plate reader at 530 nm. • 7. Culture of Candida spp. grown on Sabouraud dextrose agar slope overnight at 30° C. • 8. Exophiala cultures grown on potato dextrose agar slope for 6 days at 35° C. • 9. Cultures were removed from incubator and 2 ml sterile 0.15M NaCl was added to the overnight culture and spore and hyphal suspensions were harvested from the surface of the agar and transferred to a sterile plastic bijou tube. • a. Exophiala spp. cultures were allowed to rest for up to 10 min, allowing hyphae to settle to the bottom. The top layers of spores were transferred to a sterile plastic bijou tube. • 10. […] This is continued to A12 where 100 μl is removed and discarded. • f. This dilution series was repeated in rows B-D for the remaining 3 cultures • g. 0.5 McFarland Standard added to wells E1-E3 • h. Plate read at OD530 on BioTek. • i. Concentration of cells required will be the one that is the equivalent to the 0.5 McFarland Standard • 11. […] • 7. The highest final concentration on the plate will be as described in layouts at the end of the protocol. […] Wells A1-A3 and A7-A9 are prepared by the addition of 200 μl highest concentration of compound to the wells. • 10. All other wells contain 100 μl sterile dH2O. • 11. Serial dilutions are carried out from A1-A3 to B1-B3 whereby 100 μl is removed from A1-A3 and placed into B1-B3 and mixed well by pipetting. Then take 100 μl B1-B3 and place in C1-C3 and mix well. Take 100 μl from C1-C3 and add to D1-D3 and mix well. […] At H1-[…] μl is removed and added to A4-A6. The dilution series is carried down the plate in the same manner to wells G4-G6 where a final 100 μl is removed and discarded. H4-H6 contain water alone and will be untreated controls. • 12. The same procedure is repeated for the wells in columns A7-A9 and A10-A12. See plate layout at bottom of page. Inoculating Plates with Candida spp./Exophiala spp. • 5. […] Plates are read in the BioTek at OD530 nm. • 7. Plates are then placed in a plastic box which contains either a Petri dish of water. The box is sealed and incubated at 35° C. (Exophiala spp.) or 30° C. (Candida spp.). The presence of the water in the dish or on the tissue provides and environment of relatively high humidity. • 8. The OD530 of the Candida spp. plates are read after 24 h and 48 h, while the slower growing Exophiala spp. plates are read after 96 h and 120 h. • 9. Raw BioTek data is transformed using Gen5 software and represented graphically using GraphPad Prism 4 software and MICs determined.

For experiment [2], the system named is Candida parapsilosis ATCC 22019. The conditions noted are these: Lodderomyces parapsilosis; for MIC50 / MIC80: ATCC22019, RPMI-1640; for MIC: ATCC22019, RPMI-1640, read-out: MIC100. The method, then: as §1
For a further experiment, the system named is Candida krusei ATCC 6258. The conditions noted are these: Pichia kudriavzevii; for MIC50 / MIC80: ATCC6258, RPMI-1640; for MIC: ATCC6258, RPMI-1640, read-out: MIC100. As for the experimental part: as §1
Experiment [3] deals with Exophiala dermatitidis CA01. As to conditions: RPMI-1640, 35° C.; for MIC: read-out: MIC100. The method, then:
as §1

The structures appear in SMILES notation.

With `CC[C@H](C)C[C@H](C)CCCCCCCCC(=O)N[C@H]1C[C@@H](O)[C@@H](NCCN)NC(=O)[C@@H]2[C@@H](O)CCN2C(=O)[C@H]([C@H](O)CCN)NC(=O)[C@H]([C@H](O)[C@@H](O)c2ccc(O)cc2)NC(=O)[C@@H]2C[C@@H](O)CN2C(=O)[C@H]([C@@H](C)O)NC1=O` [Caspofungin], the MIC50 stood at 0.125 µg/mL in experiment [1], 1 µg/mL in experiment [2], 0.5 µg/mL with Candida krusei ATCC 6258 and 16 µg/mL in experiment [3]. For the same compound, the MIC80 in experiment [1] was found to be 64 µg/mL; in experiment [2] it was 2 µg/mL; with Candida krusei ATCC 6258 it was 1 µg/mL; in experiment [3], 32 µg/mL. For the same compound, the MIC in experiment [1] was above 64 µg/mL; in experiment [2], 64 µg/mL; with Candida krusei ATCC 6258, 1 µg/mL; in experiment [3] it was 32 µg/mL.
With `OC(Cn1cncn1)(Cn1cncn1)c1ccc(F)cc1F` [Fluconazole], the MIC50 in experiment [1] was determined as 250 µg/mL; in experiment [2], 0.5 µg/mL; in the experiment on Candida krusei ATCC 6258 it was 31.2 µg/mL; in experiment [3], 250 µg/mL. The MIC80 in experiment [1] came out at 500 µg/mL; in experiment [2] it was 1 µg/mL; in the experiment on Candida krusei ATCC 6258, 62.5 µg/mL; in experiment [3], 500 µg/mL. The MIC is 1000 µg/mL in experiment [1], 3.9 µg/mL in experiment [2], 62.5 µg/mL with Candida krusei ATCC 6258 and 500 µg/mL in experiment [3].
In the case of `CCC(C)n1ncn(-c2ccc(N3CCN(c4ccc(OCC5COC(Cn6cncn6)(c6ccc(Cl)cc6Cl)O5)cc4)CC3)cc2)c1=O` (stereo not drawn) [Itraconazole], the MIC50 stood at 0.125 µg/mL in experiment [1], 0.008 µg/mL in experiment [2], 0.004 µg/mL in the experiment with Candida krusei ATCC 6258 and 2 µg/mL in experiment [3]. Also, the MIC80 in experiment [1] is 0.25 µg/mL; in experiment [2] it was 0.016 µg/mL; with Candida krusei ATCC 6258, 0.125 µg/mL; in experiment [3] it was above 32 µg/mL. The MIC in experiment [1] was 0.25 µg/mL; in experiment [2], 0.125 µg/mL; in the experiment with Candida krusei ATCC 6258 it was 0.25 µg/mL; in experiment [3], above 32 µg/mL.
